This passage reports IC50 results from patent US8598161B2, “Compounds for the reduction of beta-amyloid production” (Bristol-Myers Squibb Company, priority 2011, dated 2013).

This experiment deals with Aβ42 production in H4 APP751 SWE clone 8.20 cells. Nature of the experiment: Cellular assay for inhibition of Aβ1-42 production. The class given is cell-based. Particulars: H4 cells stably transfected with APP751 Swedish mutation (clone 8.20), 19 h incubation. Here is the method: H4 cells stably transfected with APP751 containing the Swedish mutation (H4 APP751 SWE clone 8.20, developed at BMS) were maintained in log phase through twice weekly passage at a 1:20 split. […] Following incubation for 19 h in 5% CO2 at 37° C., plates were briefly centrifuged (1000 rpm, 5 min). A 10 μl aliquot from each well was transferred to a second assay plate (Costar 3709) for Aβ40 measurements. Antibody cocktails were freshly prepared by dilution into 40 mM Tris-HCl (pH 7.4) with 0.2% BSA and added to assay plates. For Aβ42 measurements, antibodies specific for the Aβ42 neoepitope (565, developed at BMS; conjugated to the Wallac reagent (Perkin Elmer)) and the N-terminal sequence of Aβ peptide (26D6, developed at SIBIA; conjugated to APC (Perkin Elmer)) were mixed and 20 μl of the mixture was added to each well of the incubated cell plate yielding a final concentration of 0.8 ng/well 565 and 75 ng/well 26D6. […] Assay plates containing antibodies were sealed with aluminum foil and incubated overnight at 4° C. Signal was determined using a Viewlux counter (Perkin Elmer) and IC50 values determined using curve fitting in CurveMaster (Excel Fit based).

With `CC#Cc1cncc(-c2cc([C@@]34N=C(N)SC[C@@H]3CCO4)c(F)cc2F)c1` (racemic) [Example 8, (±)-(4aR,7aR)-7a-(2,4-difluoro-5-(5-(prop-1-ynyl)pyridin-3-yl)phenyl)-4a,5,6,7a-tetrahydro-4H-furo[2,3-d][1,3]thiazin-2-amine], the IC50 was found to be 924 nM. `NC1=N[C@@]2(c3cc(NC(=O)c4ccc(F)cn4)ccc3F)OCC[C@H]2CS1` (racemic) [Example 4, (±)-N-(3-((4aR,7aR)-2-amino-4a,5,6,7a-tetrahydro-4H-furo[2,3-d][1,3]thiazin-7a-yl)-4-fluorophenyl)-5-fluoropicolinamide]: the IC50 turned out to be 465 nM. To `NC1=N[C@@]2(c3cc(-c4cncnc4)c(F)cc3F)OCCC[C@H]2CS1` [Example 11, (4aR,8aR)-8a-(2,4-difluoro-5-(pyrimidin-5-yl)phenyl)-4,4a,5,6,7,8a-hexahydropyrano[2,3-d][1,3]thiazin-2-amine] belongs 995 nM. The result for `NC1=N[C@@]2(c3cc(NC(=O)c4ccc(Cl)cn4)ccc3F)OCC[C@H]2CS1` [Example 2, N-(3-((4aR,7aR)-2-amino-4a,5,6,7a-tetrahydro-4H-furo[2,3-d][1,3]thiazin-7a-yl)-4-fluorophenyl)-5-chloropicolinamide] reads 24 nM; that for `N#Cc1ccc(C(=O)Nc2ccc(F)c([C@@]34N=C(N)SC[C@@H]3CCO4)c2)nc1` [Example 3, N-(3-((4aR,7aR)-2-amino-4a,5,6,7a-tetrahydro-4H-furo[2,3-d][1,3]thiazin-7a-yl)-4-fluorophenyl)-5-cyanopicolinamide], 72 nM. To `NC1=N[C@@]2(c3cc(NC(=O)c4ccccn4)ccc3F)OCC[C@H]2CS1` (racemic) [Example 5, (±)-N-(3-((4aR,7aR)-2-amino-4a,5,6,7a-tetrahydro-4H-furo[2,3-d][1,3]thiazin-7a-yl)-4-fluorophenyl)picolinamide] belongs 856 nM.
